Test results reported in article PMC10093212, “Development of Cyclic Peptides Targeting the Epidermal Growth Factor Receptor in Mesenchymal Triple-Negative Breast Cancer Subtype” (Cells, 2023).
Bridge positions count the residues as written; N and C are the ends. Ends that are not written are not given here.

Key:
BT549 cells = experiment: Cell cycle analysis by propidium iodide flow cytometry; assay type: cell-based, human; conditions: 24 h; for mitogenic activity through the binding to the EGFR: 25 μM, BT549; for cells in G1 phase / cells in G2 phase / cells in S phase: free peptide 25 μM, after 18 h serum starvation, 0.2% FBS, PI staining, two experiments
Description: BT549 cells (200,000 cells/well) were seeded onto a 6-well plate in RPMI-1640 complete medium. After adhesion, cells were starved in serum-free RPMI-1640 for 18 h, and then the medium was changed to RPMI-1640 supplemented with 0.2% FBS in the presence or absence of control, 01cys_EGFR and 06_cys EGFR peptides (25 μM). After 24 h of peptide stimulation, cells were trypsinized, washed, and suspended in PBS. Cells were fixed with 1 mL of ice-cold 70% ethanol and incubated for 30 min at 4 °C. Fixed cells were washed three times and stained with 50 μg/mL of propidium iodide and 40 μg/mL of RNAse A. Cell cycle profile was acquired by FACS Canto II and analyzed by Flow Jo software 8.8.6 (Becton Dickinson).
Next, we tested whether the peptides 01cys_EGFR and 06cys_EGFR could affect the cell cycle through the binding to EGFR. To this end, BT549 cells were serum starved for 18h to induce synchronization and then treated with 01cys_EGFR, 06cys_EGFR, and the irrelevant control peptides (25 μM) or left untreated for 24 h. Proliferating cells were stained with propidium iodide to analyze cell cycle distribution by flow cytometry (Figure 7A). The cells treated with 01cys_EGFR, 06cys_EGFR, and control peptides were distributed ~26% in G1, ~64% in S, and ~10% in the G2 phase, which was a similar behavior to unstimulated cells (Figure 7B).
Figure 7 (A) The proportion of BT549 cells untreated or treated with 25 μM of control, 01cys_EGFR, and 06cys_EGFR peptides in G1, S, and G2 phases were determined by flow cytometry and quantified by Flow Jo software using Watson Pragmatic method. […] Data are collected from two different experiments and presented as means ± SD. Paired t-test indicates no statistical significance between peptide-stimulated and unstimulated cells.

[1] = test system: thyroid cancer cell lines (Cal62 and K1); experiment: Flow cytometry binding of FITC-peptides to EGFR-positive thyroid cancer cells; assay type: cell-based, human; conditions: Cal62 and K1, especially K1; 10uM FITC-peptide, 45 min; compared with 06cys_EGFR
Description: (§1) We analyzed the binding of FITC-conjugated phages on MDA-MB231 cells by flow cytometry. A binding assay was also performed with FITC-conjugated peptides to human MDA-MB-231 and BT-549 cells, murine 4T1 cells, and additional EGFR-positive thyroid cancer cell lines K1 and Cal62. To increase the stringency conditions of in vitro binding, adherent cells were incubated with 10 μg/mL of 01cys_EGFR and 06_cys EGFR for 45 min in the dark at 37 °C instead of 4 °C of the standard protocol. Cells were recovered by a cell scraper, then twice washed with PBS and suspended in 300 μL of BD™ FACSFlow™ fluid. Data were acquired on the BD FACSCanto™ II and analyzed with FlowJo software (Becton Dickinson, San Jose, CA, USA).
In order to evaluate the binding efficacy of our peptides in other EGFR-overexpressing cancer cell types, we choose two different thyroid cancer cell lines (Cal62 and K1).
Figure S3. Pe p t i d e binding assay in EGFR-positive thyroid cancer cells using ﬂow cytometry. Flow cytometric analysis showing EGFR-overexpressing thyroid cancer cell lines K1 and Cal62 unstained or stained with 10uM of FITC- conjugate peptides (control, 01_cysEGFR and 06cys_EGFR) for 45 […]

[2] = test system: MDA-MB-231 xenograft tissue; experiment: Confocal immunofluorescence of tumor xenograft tissue sections with FITC-peptides; parameters: species or system human; conditions: MDA-MB-231 xenograft tissue sections, FITC-peptide 10 μg/mL, 45 min, 37 °C; confocal microscopy
Description: (§2) OCT-embedded MDA-MB-231 xenograft tissue samples derived from Balb/c nude mice were cut in 8–10 µm sections and mounted onto microscope slides for confocal microscopy analysis. Sections were fixed with 4% paraformaldehyde for 30 min at 4 °C, and then for 45 min, incubated at 4 °C with rabbit polyclonal anti-EGFR (1:100 dilution -Bethyl Laboratories, Inc., Montgomery, TX, USA) followed by Alexa Fluor 568-labeled anti-rabbit secondary antibody (1:500 dilution; Thermo Fisher Scientific). After washing, cells were incubated in the dark with FITC-conjugated peptides (Control, 01_cysEGFR, 06_cysEGFR) (10 μg/mL) for 45 min at 37 °C, anti-Wheat Germ Agglutinin (WGA) Alexa Fluor 647 conjugate (1:200 dilution; Thermo Fisher Scientific) for 45 min, and finally with DAPI at the dilution 1:500 for 10 min. Cells were prepared with mounting medium (ProLong antifade, Thermo Fisher Scientific) and visualized by confocal microscopy (LEICA TCS SP8).
Then, we asked whether the 01_cysEGFR and 06_cysEGFR peptides could be used for in vivo analysis of tumor tissues expressing EGFR. To this end, we generated MDA-MB-231 tumor xenograft in mice and performed confocal microscopy analysis of tumor tissue sections upon immunofluorescence staining with FITC-peptides (green signal) or anti-EGFR (red signal) (Figure 6). […]

[3] = test system: MDA-MB-231 EGFR KO xenograft; experiment: as above; parameters: species or system human; conditions: MDA-MB-231 EGFR KO xenograft sections, FITC-peptide 10 μg/mL, 45 min, 37 °C; confocal microscopy
Description: as §2
EGFR was detected in the MDA-MB-231 xenograft tissue sections by an anti-EGFR antibody as a red fluorescence signal, while it was undetected in MDA-MB-231 EGFR KO (Figure 6).

[4] = test system: wild-type MDA-MB-231 cells; experiment: Flow cytometry binding of FITC-conjugated phages; assay type: cell-based, human; conditions: phage displaying the peptide; compared to 04cys_EGFR and 30cys_EGFR phages
Description: Phages expressing peptide sequences (01cys_EGFR, 04cys_EGFR, 06cys_EGFR, and 30cys_EGFR) and a wild-type M13 phage were conjugated to fluorescein isothiocyanate (FITC) in order to analyze their binding affinity to EGFR on MDA-MB-231 by flow cytometry. The “Pierce FITC Antibody Labeling Kit” (cat #53027—Thermo Fisher Scientific) was used for the conjugation following the manufacturer’s instructions.
as §1
The binding ability of phages 01cys_EGFR, 04cys_EGFR, 06cys_EGFR, and 30cys_EGFR to the MDA-MB-231 cells were analyzed by flow cytometry. To this end, the phages were conjugated with fluorescein isothiocyanate (FITC) and incubated with wild-type MDA-MB-231 or MDA-MB-231 EGFR- KO cells. […]

[5] = cited from earlier work
Description: (§3) TNBC is the most aggressive form of breast cancer. There are different TNBC subtypes characterized by intratumor heterogeneity based on morphology, gene expression profile, and response to adjuvant chemotherapies. Unfortunately, TNBC is still lacking effective anticancer targets for clinical treatment. This justifies the urgency to explore new biomarkers and therapeutic strategies for improving the survival outcomes of TNBC patients. EGFR is a tyrosine kinase membrane receptor that contains in the extracellular region the docking site for the epidermal growth factor a ...

MDA-MB-231 cells = conditions: cited from earlier work
Description: as §3

MDA-MB-468 cells = conditions: cited from earlier work
Description: as §3

| Sequence | mitogenic activity through the binding to the EGFR (BT549 cells) | cells in G1 phase (BT549 cells) | cells in G2 phase (BT549 cells) | cells in S phase (BT549 cells) | efficacy of binding to thyroid cancer cells [1] | green fluorescence signal (FITC-peptide staining) [2] | green fluorescence signal (FITC-peptide staining) [3] | binding of FITC-conjugated phage (percentage of fluorescence) [4] | serum stability [5] | uptake (MDA-MB-231 cells) | uptake (MDA-MB-468 cells) |
| --- | --- | --- | --- | --- | --- | --- | --- | --- | --- | --- | --- |
| CEKMVATHC (disulfide 1-9 (inferred)) [01cys_EGFR, Phage-display selected cyclic EGFR peptide ligand, one disulphide bond, amidated C-terminus] | lacked mitogenic activity | ~ 26% | ~ 10% | ~ 64% | higher efficacy of binding | stronger green fluorescence signal | lack of fluorescence | higher efficiency |  |  |  |
| CGGNGPGLC (disulfide 1-9 (inferred)) [irrelevant peptide, Irrelevant peptide synthesized as a negative control, reference compound] |  | ~ 26% | ~ 10% | ~ 64% |  | lack of green fluorescence signal |  |  |  |  |  |
| CPSDEHHTC (disulfide 1-9 (inferred)) [06cys_EGFR, Phage-display selected cyclic EGFR peptide ligand, one disulphide bond, amidated C-terminus] | lacked mitogenic activity | ~ 26% | ~ 10% | ~ 64% |  |  |  | higher efficiency |  |  |  |
| YHWYGYTPENVI [peptide 22] |  |  |  |  |  |  |  |  | low serum stability | highest uptake | highest uptake |
